# Measurements published in ChEMBL document CHEMBL3272252, “A novel prostaglandin endoperoxide mimic, prostaglandin F2alpha acetal” (J Med Chem, 1977).
# The source made the active and inactive calls. No cut-off for these calls is given here.
# What was measured:
# [1] = system: Platelet; test: Induction of platelet aggregation in human citrated platelet-rich plasma assessed as internal contractile response with granules being squeezed into cell centre surrounded closely by microtubules and contractile microfilaments by transmission electron microscopy; assay type: functional
# [2] = Vasocontractile activity in dog lateral saphenous vein assessed as smooth muscle contractile response in presence of PG synthase inhibitor indomethacin; assay type: functional, tissue-based; details: Canis lupus familiaris
# [3] = organism: Oryctolagus cuniculus; test: Vasocontractile activity in rabbit aorta assessed as smooth muscle contractile response; assay type: functional, tissue-based; details: Muscle tissue
# [4] = organism: Canis lupus familiaris; test: (§1) Vasocontractile activity in dog lateral saphenous vein assessed as smooth muscle contractile response; assay type: functional
# [5] = system: Gerbillinae; test: Vasocontractile activity in gerbil colon assessed as smooth muscle contractile response; assay type: functional, tissue-based; details: Muscle tissue
# [6] = system: Platelet; test: Induction of irreversible platelet aggregation in human citrated platelet-rich plasma at 5 to 10 ug/ml; assay type: functional
# [7] = system: Platelet; test: Induction of reversible platelet aggregation in human citrated platelet-rich plasma at 0.7 to 4 ug/ml; assay type: functional
# [8] = system: Platelet; test: Induction of platelet aggregation in human citrated platelet-rich plasma in presence of 10 ug/ml PG synthase inhibitor indomethacin; assay type: functional
# [9] = Retardation factor of the compound using CHCl3-EtOAc-HOAc at ratio of 50:50:1 as solvent system by thin layer chromatography; assay type: physicochemical
# [10] = Stability of the compound in Krebs solution at pH 8.2 at 4 degC after 1 week; assay type: physicochemical; details: buffer, pH 8.2, 168 h
# [11] = Vasocontractile activity in rabbit aorta assessed as smooth muscle contractile response relative to PGE2; assay type: functional, Oryctolagus cuniculus, Muscle tissue
# [12] = Vasocontractile activity in gerbil colon assessed as smooth muscle contractile response relative to PGF2alpha; assay type: functional, Gerbillinae, Muscle tissue
# [13] = as §1; assay type: functional; details: Canis lupus familiaris, read-out: ED50 (the source's name)
# [14] = Vasocontractile activity in dog lateral saphenous vein assessed as smooth muscle contractile response relative to PGF2alpha; assay type: functional, Canis lupus familiaris
# [15] = system: Platelet; test: Induction of irreversible platelet aggregation in human citrated platelet-rich plasma at 100 to 250 ng/ml; assay type: functional
smiles,measurement,setting,value
CCCCC[C@H](O)/C=C/[C@@H]1[C@@H](C/C=C\CCCC(=O)O)[C@@H]2C[C@H]1OC(C)O2 (stereo in doubt; 1a) [listing 1 of 2 here],Activity,[1],Active
same,Activity,[2],Active
same,Activity,[3],Dose-dependent effect
same,Activity,[4],Dose-dependent effect
same,Activity,[5],Dose-dependent effect
same,Activity,[6],Active
same,Activity,[7],Active
same,Activity,[8],Active
CCCCC[C@H](O)/C=C/[C@@H]1[C@@H](C/C=C\CCCC(=O)O)[C@@H]2C[C@H]1OC(C)O2 (mixture of isomers),Rf,[9],0.49
CCCCC[C@H](O)/C=C/[C@@H]1[C@@H](C/C=C\CCCC(=O)O)[C@@H]2C[C@H]1OC(C)O2 (stereo in doubt; 1a) [listing 2 of 2 here],Stability,[10],Stable
same,Rf,[9],0.53
same,Activity,[11],19%
same,Activity,[12],0.12%
same,EC50,[13],5.8 ng/mL
same,Activity,[14],32%
CCCCC[C@@H](/C=C/[C@@H]1[C@@H](C/C=C\CCCC(=O)O)[C@H]2C[C@H]1OO2)OO,Activity,[15],Active
same,Activity,[11],80%
same,Activity,[12],1.5%
